Measurements as given in patent US6133299A, “Methods for treating neurodegenerative diseases and disorders using N-(2,6-disubstituted aromatic)-N'-pyridinyl ureas and other anticonvulsant compounds” (Warner-Lambert Company, priority 1993, dated 2000).

What was measured:
[1] = system: Neuronal/Glial Cortical Cultures; experiment: Hypoxia-induced lactate dehydrogenase release (cell injury) in neuronal/glial cortical cultures; type: cell-based, rat (Sprague Dawley); settings: Rattus norvegicus, read-out: % Inh (percent inhibition of the release of lactate dehydrogenase in comparison to hypoxic control cultures)
Description: An assay was conducted to compare the inhibitory action of various compounds which are the subject of the present invention. The assay measured the oxygen deprivation-induced neuronal cell death from various cortical cultures. Lactate dehydrogenase (LDH) is a cytosolic enzyme that is only present in the extracellular medium if cell membranes rupture, indicating cell death. Therefore, LDH release into the culture medium is a convenient assay of cell death. The results of Table 3 indicate that each of the compounds tested decreased neuronal cell death from hypoxia in vitro.
The uteri of Sprague Dawley rats in their 18th day of fetal gestation were removed under halothane anesthesia and placed in a chilled bath of magnesium and calcium-free Hank's balanced salt solution (HBSS). Cortical brain hemispheres were removed from individual fetuses and digested in 0.1% trypsin in HBSS for 15 minutes at room temperature. Digested tissue was washed three times with HBSS then dissociated into a single cell suspension by trituration with a glass pipette. […] One hundred microliters of this cell suspension was pipetted into individual wells of 96-well tissue culture plates previously coated with poly-L-lysine, then stored in a humidified incubator (37° C., 3% CO2). Glial cell growth was stopped by the addition of 100 μL of 45% DME, 45% HAM F12, and 10% Horse serum (10/0 DME/F12) containing 15 μg/mL of 5-fluoro-2-deoxyuridine and 35 μg/mL of uridine, 3 days after the initial plating. Cultures were fed at 2- or 3-day intervals thereafter by replacing 100 μL of spent medium with an identical volume of fresh 10/0 DME/F12.
Sixteen-day-old cultures were prepared for experiments by removing growth medium from each culture well and rinsing once with 250 μL of Mg^++ -free HBSS containing 1.8 mM Ca^++ and 1 g/L D-glucose (0 Mg-HBSS) Control and test agent solutions, prepared using 0 Mg-HBSS medium, were dispensed in 50 μL aliquots into individual test wells (Total volume/well=50 μL). All liquid medium preparations to this point were equilibrated with […], 5% CO2. Plates were placed into a 37° C., humidified, triple-gas incubator with O2 and CO2 levels maintained at 1% and 10%, respectively. Plates were removed after 7.5 hours of oxygen deprivation and restored to normoxic conditions (20% O2 /10% CO2, 37° C.) following a 50 μL addition to each well of appropriate control or test agent solutions containing 1.8 mM Ca^++, 1.6 mM Mg^++, and 7.0 g/L D-glucose. Final medium concentrations of 1.8 mM Ca^++, 0.8 mM Mg^++, and 4 g/L D-glucose were present during the reoxygenation period.
Medium concentrations of lactate dehydrogenase (LDH), a cytosolic enzyme normally retained by cells but released upon cell death, were determined for each well following an additional 16.5-hour normoxic exposure period. Individual 25 μL medium specimens were collected from each well and placed into wells of a clean 96-well microtiter plate containing 225 μL of 0.1 M KPO4 buffer (pH=7.5 at 25° C.) and 30 μg NADH (reduced […] adenine dinucleotide). After 10-minute incubation at 37° C., 30 μL of 2.4 mM sodium pyruvate was added to each well and plates were gently shaken to mix solution. Plates were immediately placed into a Multiscan MCC/340 plate reader and scanned for […] (excitation at 340 nm) for 1 minute at 5-second intervals. A kinetic analysis of the change in medium absorbance resulting from shifts in NADH concentrations was used, in combination with factors to correct for temperature, light path, and volume adjustments to determine medium LDH concentrations (IU/mL). Normoxic control baseline LDH levels were subtracted from both hypoxic control and test agent values prior to determining test agent effectiveness in preventing oxygen deprivation-induced injury.

[2] = system: neuronal damage from ischemia; settings: in vitro and in vivo; cited from earlier work
calcium channels = settings: concentrations similar to those tested; cited from earlier work
[3] = system: neuroprotective capabilities; experiment: Neuroprotective capabilities in vitro (general statement); type: cell-based
Hippocampal Slices = experiment: Recovery of synaptic activity (EPSP) in hippocampal slices after hypoxia-hypoglycemia (Example 4); type: cell-based, rat (male Wistar)
Description: Young male Wistar rats (150 to 250 g) were anesthetized with ketamine (200 mg/kg IP) and ether and were perfused transcardially with cold, oxygenated, low sodium-containing physiological buffer solution (252 mM sucrose, 3.5 mM KCl, 1.0 mM MgSO4, 20 mM CaC1, 26 mM NaHCO3, 1.25 mM NaH2 PO4, and 10 mM glucose) with 50 μM ketamine added. Brains were removed and hippocampi carefully excised. Hippocampi were sliced transversely at 450 μm and transferred into cold (4° C.) low-sodium buffer solution gassed with 95% O2, 5% CO2 at 31° C. After 45 minutes slices were transferred to oxygenated normal physiological solution (126 mM NaCl, 3.5 mM KCl, 1.0 mM MgSO4, 2.0 mM CaCl2, 20 mM NaHCO3, 1.25 mM NaH2 PO4, and 10 mM glucose) at 31° C. for at least 1 hour before experiments began. After preincubation, slices were transferred to a heated (36° C.), gassed incubation chamber where they were continuously superfused with gassed normal physiological solution. Evoked extracellular synaptic potentials (EPSPs) were obtained using glass micropipettes placed approximately 100 μm into the slice. Electrical stimulation was applied once per minute to the stratum radiatum by insulated paired nichrome wires (60 μm diameter). Stimuli consisted of 150 μA pulses lasting 0.4 msec. […] Data from a slice were used only if EPSP amplitude was greater than 2.0 mV before hypoxia-hypoglycemia.
Evoked potentials were recorded and analyzed with a digital computer interface. Experiments were started by recording for several minutes under normal conditions (95% O2, 5% CO2, 10 mM glucose). Then drug was added to the superfusion solution (or normal solution was continued in control experiments). After 10 minutes of drug superfusion, hypoxia-hypoglycemia was induced by switching to superfusion solution containing added drug with low glucose (2 mM) that was equilibrated with 95% N2 and 5% CO2. At the same time the slice chamber gas was switched to 95% N2 and 5% CO2. Hypoxia-hypoglycemia was continued for 12 minutes. After 12 minutes, 95% O2 and 10 mM glucose were returned to the slices and the superfusing solution. Following 15 minutes of reoxygenation, the experiment was ended. EPSPs were considered recovered if they returned to at least half of their original amplitude. The percentage of slices with recovered EPSPs were calculated for each condition.
This study was identical in design to Example 3 except that during the hypoxic period of 12 minutes, glucose was reduced from 10 mM to 2 mM rather than from 10 mM to zero as in Example 3.

SMILES: O=C1NC(=O)C(c2ccccc2)(c2ccccc2)N1 [Phenytoin, phenytoin]
- inhibition at 30 µM ([1]; 30 μM): 78%
- inhibition at 100 µM ([1]; 100 μM): 82%
- effect on neuronal damage from ischemia [2]: preventing neuronal damage from ischemia both in vitro and in vivo
- action on calcium channels (calcium channels): blocks a variety of calcium channels
- neuroprotective capabilities [3]: shown in vitro to have neuroprotective capabilities
- Number Slices Recovered / Number Slices Tested (≥50% EPSP amplitude recovery after reoxygenation) (Hippocampal Slices; 5 μM): 0/8
- Number Slices Recovered / Number Slices Tested (≥50% EPSP amplitude recovery after reoxygenation) (Hippocampal Slices; 20 μM): 5/12
- Number Slices Recovered / Number Slices Tested (≥50% EPSP amplitude recovery after reoxygenation) (Hippocampal Slices; 50 μM): 3/9
- recovery of EPSPs, overall effect (Hippocampal Slices; concentrations tested in Table 2): enhanced recovery of EPSPs
